In US10668040B2, “Treatment of urea cycle disorders in neonates and infants” (Horizon Therapeutics, LLC, priority 2017, dated 2020):

Key:
Format in all cases: in vivo, human
[1] = Pharmacokinetics of HPN-100 and NaPBA, study HPN-100-012; conditions: HPN-100-012 (N = 15)
Excerpt: The pharmacokinetics of the short term studies can be summarized as follows. Mean exposure levels of HPN-100 metabolites PBA, PAA, and PAGN after doses of HPN-100 and NaPBA with meals (TID) in pediatric (29 days to 17 years of age) UCD patients in HPN-100-005 and HPN-100-012 studies are summarized below. The mean exposure to PBA, the parent metabolite, and mean exposure to PAGN, the terminal metabolite, show no systematic variation across age groups, while PAA exposure tended to decrease with increasing age, a finding consistent with those from population PK modeling which indicate that the rate of clearance/metabolism of PAA varies directly with body size. While systemic metabolite exposure, assessed as peak plasma concentration (Cmax) or AUC, is generally similar for HPN-100 and NaPBA, the minimum concentration (Cmin-ss) was higher—and/or percent-fluctuation less—for plasma PAGN, a finding consistent with slower gastrointestinal absorption of PBA when administered orally as HPN-100.

[2] = tested on: pediatric UCD patients; test: Pooled ammonia analyses from short term studies
Procedure: Pooled ammonia analyses from short term studies were also conducted.

[3] = tested on: pediatric patients with UCDs; test: HPN-100-012 switch-over study: 24-hour blood ammonia on HPN-100 vs NaPBA
Excerpt: HPN-100-012 was an open-label, fixed sequence, switch-over study of the safety, PK and efficacy of HPN-100 compared to NaPBA in patients with UCDs, with a 12-month safety extension part. […] After review of all the safety data by the DSMB, 8 additional subjects were enrolled in the study after the switch-over phase was completed.

[4] = tested on: UCD patients; test: Example 3: rate of hyperammonemic crises (HACs)
Excerpt: Sixteen newborn infants aged 0 to 27 days, and 10 infants and toddlers aged 28 days to 23 months received RAVICTI Oral Liquid administered just prior to breastfeeding or intake of formula or food. The recommended dosing regimen was 3-6 times per day depending on feeding schedule.
The starting dose of RAVICTI was based on UCD status (newly diagnosed, or already stable on sodium phenylbutyrate [NaPBA] and/or sodium benzoate [NaBz]) and whether a hyperammonemic crisis was present. Subsequently, the dose may have been adjusted based on clinical and/or ammonia results, according to an algorithm provided in the protocol. […]
Hyperammonemic crisis (HAC) was defined as having signs and symptoms consistent with hyperammonemia (such as, but not limited to, frequent vomiting, nausea, headache, lethargy, irritability, combativeness, and/or somnolence) associated with high blood ammonia and requiring medical intervention. Rate of HACs prior to enrollment was calculated as sum of (number of HAC)/sum of (subject age in days at the time of enrollment or 365 days, whichever was less) across all subjects in the corresponding group. Rate of HACs per 6 months during the safety extension was calculated as sum of (number of HAC)/sum of (days during first 6 months starting on Day 8 or number days on RAVICTI, whichever is less) across all subjects in the corresponding group.

[5] = tested on: UCD patients; test: Example 3: BMI and BSA Z-scores up to Month 24
Procedure: Baseline and Change from Baseline in Body Mass Index (BMI) Z-Score Up to Month 24
(§1) To assess any effect of study drug treatment on growth, Z-scores were calculated to express the deviation from a reference population for BMI. The Z-scores are based on the World Health Organization's Child Growth Standards charts. Negative Z-scores indicate lower than typical for age and gender while positive scores indicate higher than typical for age and gender. BMI measurements were taken on month 1, month 2, month 3, month 4, month 5, month 6, month 9, month 12, month 15, month 18, and month 24.
Baseline and Change from Baseline in Body Surface Area (BSA) Z-Score Up to Month 24
as §1, with “BSA.” for “BMI.”, “weight-for-length” for “the World Health Organization's Child Growth Standards”

[6] = original scale, non-inferiority upper margin 1.25
[7] = Age 2 months to <2 years, Month 1
[8] = Age 2 months to <2 years, Month 2
[9] = Age 2 months to <2 years, Month 3
[10] = Age 2 months to <2 years, Month 4
[11] = Age 2 months to <2 years, Month 5
[12] = Age 2 months to <2 years, Month 6
[13] = Age 2 months to <2 years, Month 9
[14] = Age 2 months to <2 years, Month 12
[15] = Age 2 months to <2 years, Month 15
[16] = Age 2 months to <2 years, Month 18
[17] = Age 2 months to <2 years, Month 24

## O=C(CCCc1ccccc1)OCC(COC(=O)CCCc1ccccc1)OC(=O)CCCc1ccccc1 [RAVICTI, benzenebutanoic acid, 1′,1″-(1,2,3-propanetriyl) ester]
[1]; mean (CV %)
  Plasma PAA % Fluctuation: 2141 (145.0) %
  Plasma PAA AUC0-24: 1096 (214.0) μg · h/mL
  Plasma PAA CLss/F: 25538 (116.8) mL/min
  Plasma PAA Cmax-ss: 84.7 (148.3) μg/mL
  Plasma PAA Cmin-ss: 26.1 (360.8) μg/mL
  Plasma PAGN % Fluctuation: 907 (116.7) %
  Plasma PAGN AUC0-24: 1131 (71.2) μg · h/mL
  Plasma PAGN CLss/F: 10830 (85.6) mL/min
  Plasma PAGN Cmax-ss: 85.5 (53.7) μg/mL
  Plasma PAGN Cmin-ss: 19.9 (173.4) μg/mL
  Plasma PBA % Fluctuation: 1781 (84.6) %
  Plasma PBA AUC0-24: 255 (54.5) μg · h/mL
  Plasma PBA CLss/F: 22610 (48.6) mL/min
  Plasma PBA Cmax-ss: 36.8 (59.0) μg/mL
  Plasma PBA Cmin-ss: 0.750 (192.7) μg/mL
[1]; median
  Plasma PAA Tmax-ss: 8.00 h
  Plasma PAGN Tmax-ss: 7.92 h
  Plasma PBA Tmax-ss: 8.00 h
[2]
  abnormal ammonia values: 15%
[3]; 8-h time point, HPN-100 Day 10
  Mean blood ammonia: 23.20 µmol/L
[3]; 12-hour time point, HPN-100 Day 10, NaPBA Day 1
  Mean blood ammonia: 28.24 µmol/L
[3]; [6]
  upper 90% CI, blood ammonia 24-hour AUC HPN-100 vs NaPBA: 1.002
  upper 95% CI, blood ammonia 24-hour AUC HPN-100 vs NaPBA: 1.055
[3]; pediatric UCD patients 29 days to <6 years
  median difference between treatments in ammonia AUC (HPN-100 vs NaPBA): -37.84 µmol·h/L
[3]; pediatric UCD patients 29 days to <6 years, non-inferiority upper margin 1.25
  24-hour AUC for blood ammonia, HPN-100 (Day 10) compared with NaPBA (Day 1): non-inferior to NaPBA
[3]; pre-dose and 24 hours post dose
  Mean blood ammonia levels following an overnight fast: normal
[4]; subjects aged 0 to 27 days, 16 subjects assessed
  Rate of HACs (ratio): 0.003
[4]; subjects aged 2 months and up to 2 years, 6 subjects assessed
  Rate of HACs (ratio): 0.005
[5]; Age 0 to <2 Months
  BMI Z-Score baseline: −0.0544 (±1.268);
  BSA Z-Score baseline: −0.1980 (±2.118);
[5]; Age 0 to <2 months, Month 1
  BMI Z-Score change from baseline: −0.2158 (±1.36);
  BSA Z-Score change from baseline: 0.2336 (±1.956);
[5]; Age 0 to <2 months, Month 2
  BMI Z-Score change from baseline: −0.2598 (±1.195);
  BSA Z-Score change from baseline: 0.2006 (±1.721);
[5]; Age 0 to <2 months, Month 3
  BMI Z-Score change from baseline: −0.1617 (±1.026);
  BSA Z-Score change from baseline: 0.2684 (±1.375);
[5]; Age 0 to <2 months, Month 4
  BMI Z-Score change from baseline: −0.0264 (±1.682);
  BSA Z-Score change from baseline: 0.2372 (±2.308);
[5]; Age 0 to <2 months, Month 5
  BMI Z-Score change from baseline: 0.0828 (±1.142);
  BSA Z-Score change from baseline: 0.1810 (±1.7);
[5]; Age 0 to <2 months, Month 6
  BMI Z-Score change from baseline: 0.0136 (±1.721);
  BSA Z-Score change from baseline: 0.2902 (±2.06);
[5]; Age 0 to <2 months, Month 9
  BMI Z-Score change from baseline: 0.4614 (±1.253);
  BSA Z-Score change from baseline: 0.1679 (±1.324);
[5]; Age 0 to <2 months, Month 12
  BMI Z-Score change from baseline: 0.6646 (±0.9533);
  BSA Z-Score change from baseline: 0.1308 (±0.5037);
[5]; Age 0 to <2 months, Month 15
  BMI Z-Score change from baseline: 0.6830 (±0.557);
  BSA Z-Score change from baseline: 0.1595 (±0.7583);
[5]; Age 0 to <2 months, Month 18
  BMI Z-Score change from baseline: 0.3308 (±0.2757);
  BSA Z-Score change from baseline: 0.1050 (±0.7352);
[5]; Age 0 to <2 months, Month 24
  BMI Z-Score change from baseline: 0.7743 (±0.6496);
  BSA Z-Score change from baseline: 0.7341 (±1.356);
[5]; Age 2 Months to <2 Years
  BMI Z-Score baseline: 0.8107 (±2.17);
  BSA Z-Score baseline: 0.7143 (±2.149);
[5]; [7]
  BMI Z-Score change from baseline: −0.2385 (±0.7783);
  BSA Z-Score change from baseline: −0.2105 (±0.7413);
[5]; [8]
  BMI Z-Score change from baseline: −0.0249 (±0.7486);
  BSA Z-Score change from baseline: −0.0704 (±0.7039);
[5]; [9]
  BMI Z-Score change from baseline: 0.1815 (±0.8606);
  BSA Z-Score change from baseline: 0.1065 (±0.7016);
[5]; [10]
  BMI Z-Score change from baseline: 0.4434 (±0.9485);
  BSA Z-Score change from baseline: 0.3365 (±0.7767);
[5]; [11]
  BMI Z-Score change from baseline: 0.1484 (±0.7629);
  BSA Z-Score change from baseline: 0.1043 (±0.5675);
[5]; [12]
  BMI Z-Score change from baseline: 0.2497 (±0.8092);
  BSA Z-Score change from baseline: 0.1842 (±0.622);
[5]; [13]
  BMI Z-Score change from baseline: 0.6407 (±0.9869);
  BSA Z-Score change from baseline: 0.4875 (±0.8614);
[5]; [14]
  BMI Z-Score change from baseline: 0.4164 (±0.8067);
  BSA Z-Score change from baseline: 0.2944 (±0.7513);
[5]; [15]
  BMI Z-Score change from baseline: −0.2997 (±0.1696);
  BSA Z-Score change from baseline: −0.3661 (±0.00932);
[5]; [16]
  BMI Z-Score change from baseline: −0.2038 (±00000);
  BSA Z-Score change from baseline: −0.2214 (±00000);
[5]; [17]
  BMI Z-Score change from baseline: 0.5581 (±1.24);
  BSA Z-Score change from baseline: 0.4310 (±1.131);
